Results taken from patent publication US20260374754A1, “N-((ISOQUINOLIN-6-YL)METHYL)-1H-PYRAZOLE-4-CARBOXAMIDE DERIVATIVES AS PLASMA KALLIKREIN INHIBITORS FOR THE TREATMENT OF HEREDITARY ANGIODEMA” (Takeda Pharmaceutical Company Limited, priority 2022, published 2026).
Where a name gives a salt, the structure may show the parent alone.

Molecular target: human activated kallikrein enzyme (Homo sapiens, UniProt P03952)
Experiment: Inhibition of human activated plasma kallikrein, fluorogenic PFR-AMC substrate, 500 pM enzyme format
Type: biochemical
Settings: 500 pM activated kallikrein; 300 μM PFR-AMC; 30 min preincubation; 10 min room temperature; pH 7.5; read-out: Primary Dose Response Assay: Average EC50
Description: Compounds were evaluated for inhibition of the human activated kallikrein enzyme in two formats of an assay employing a fluorogenic peptide substrate. In one assay format, the concentrations of reagents were as follows: 20 mM Tris pH 7.5, 1 mM EDTA, 150 mM sodium chloride, 0.1% PEG-400, 0.1% Triton X-100, 500 pM activated kallikrein enzyme, 300 μM Pro-Phe-Arg-7-amido-4-methylcoumarin (PFR-AMC) substrate. Prior to reaction initiation with substrate, enzyme and inhibitors were preincubated for 30 min at room temperature. After initiation with substrate, reactions were incubated for 10 min at room temperature and fluorescence emission at 460 nm from 380 nm excitation measured with a microplate reader. In another assay format, the concentrations of reagents were as follows: 20 mM Tris pH 7.5, 1 mM EDTA, 150 mM sodium chloride, 0.1% PEG-400, 0.1% Triton X-100, 5 pM activated kallikrein enzyme, 300 uM PFR-AMC substrate. Prior to reaction initiation with substrate, enzyme and inhibitors were preincubated for 30 min at room temperature. After initiation with substrate, reactions were incubated for 18 hr at room temperature and fluorescence emission at 460 nm from 380 nm excitation measured with a microplate reader.
Table 35 provides the results of the assay in the format with 500 pM activated kallikrein assay.

human activated kallikrein enzyme, sequence (P03952 391-638 limits assumed): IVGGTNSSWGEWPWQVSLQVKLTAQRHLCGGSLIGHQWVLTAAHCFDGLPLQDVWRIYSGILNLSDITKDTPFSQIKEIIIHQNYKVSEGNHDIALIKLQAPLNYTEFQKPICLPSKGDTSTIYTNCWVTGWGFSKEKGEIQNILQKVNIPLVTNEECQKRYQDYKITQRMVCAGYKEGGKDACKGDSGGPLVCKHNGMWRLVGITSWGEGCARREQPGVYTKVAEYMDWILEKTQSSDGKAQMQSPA
human activated kallikrein enzyme, sequence (P03952 20-390 partner limits assumed): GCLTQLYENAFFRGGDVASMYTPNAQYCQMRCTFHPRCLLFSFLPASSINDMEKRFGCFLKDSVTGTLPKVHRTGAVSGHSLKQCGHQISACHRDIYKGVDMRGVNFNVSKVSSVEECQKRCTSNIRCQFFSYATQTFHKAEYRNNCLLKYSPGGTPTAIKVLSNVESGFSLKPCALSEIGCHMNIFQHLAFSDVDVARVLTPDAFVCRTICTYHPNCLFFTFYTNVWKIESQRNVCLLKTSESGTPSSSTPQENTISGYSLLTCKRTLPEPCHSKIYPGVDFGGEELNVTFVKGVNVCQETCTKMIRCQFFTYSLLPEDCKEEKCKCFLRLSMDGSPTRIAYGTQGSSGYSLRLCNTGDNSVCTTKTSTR

| SMILES | EC50 [µM] |
| --- | --- |
| Cc1ccc2ncc(COc3cnnc(NCc4c(C)cc5c(N)nccc5c4C)c3)cc2c1 [Example 408, 5,7-dimethyl-6-(((5-((6-methylquinolin-3-yl)methoxy)pyridazin-3-yl)amino)methyl)isoquinolin-1-amine] | < 0.001 |
| Cc1cc2c(N)nccc2c(C)c1CNc1cc(NCc2ccc(Cn3cccn3)cc2F)ncn1 [Example 379, N^4-(4-((1H-pyrazol-1-yl)methyl)-2-fluorobenzyl)-N^6-((1-amino-5,7-dimethylisoquinolin-6-yl)methyl)pyrimidine-4,6-diamine] | < 0.001 |
| Cc1cc2c(N)nccc2c(C)c1CNC(=O)c1cn(Cc2ccc(CC(=O)N3CC4CC4C3)cc2)cc1F (centres unmarked) [Example I-479, 1-(4-(2-(3-azabicyclo[3.1.0]hexan-3-yl)-2-oxoethyl)benzyl)-N-((1-amino-5,7-dimethylisoquinolin-6-yl)methyl)-4-fluoro-1H-pyrrole-3-carboxamide] | < 0.001 |
| Cc1cc2c(N)nccc2c(C)c1CNC(=O)c1cnn(Cc2ccc3ncccc3n2)c1 [Example 150, 1-((1,5-naphthyridin-2-yl)methyl)-N-((1-amino-5,7-dimethylisoquinolin-6-yl)methyl)-1H-pyrazole-4-carboxamide] | 0.01 to 0.1 |
| CNC(=O)Cc1ccc(Cn2cc(C(=O)NCc3c(C)cc4c(N)nccc4c3C)cn2)cc1 [Example 230, N-((1-amino-5,7-dimethylisoquinolin-6-y1)methy1)-1-(4-(2-(methylamino)-2-oxoethyl)benzyl)-1H-pyrazole-4-carboxamide] | < 0.001 |
| Cc1cc2c(N)nccc2c(C)c1CNC(=O)c1ccnc(C(=O)c2cn3cc(C4CC4)ccc3n2)c1 [Example 189, N-((1-amino-5,7-dimethylisoquinolin-6-y1)methyl)-2-(6-cyclopropylimidazo[1,2-a]pyridine-2-carbonyl)isonicotinamide] | 0.1 to 1 |
| COc1c(F)cccc1Cc1ccc(Cn2cc(C(=O)NCc3c(C)cc4c(N)nccc4c3C)cn2)cc1 [Example 116, N-((1-amino-5,7-dimethylisoquinolin-6-yl)methyl)-1-(4-(3-fluoro-2-methoxybenzyl)benzyl)-1H-pyrazole-4-carboxamide] | 0.001 to 0.01 |
| Cc1cc2c(N)nccc2c(C)c1CNC(c1cnn(Cc2ccc(Cn3ccccc3=O)cc2)c1)C(F)(F)F (centres unmarked) [Example I-471, 1-(4-((4-(1-(((1-amino-5,7-dimethylisoquinolin-6-yl)methyl)amino)-2,2,2-trifluoroethyl)-1H-pyrazol-1-yl)methyl)benzyl)pyridin-2(1H)-one] | 0.01 to 0.1 |
| Cc1cc2c(N)nccc2c(C)c1CNc1cc(OCc2ccc(Cn3ccccc3=O)cc2)c(Cl)cn1 [Example I-456, 1-(4-(((2-(((1-amino-5,7-dimethylisoquinolin-6-yl)methyl)amino)-5-chloropyridin-4-yl)oxy)methyl)benzyl)pyridin-2(1H)-one] | 0.001 to 0.01 |
| COc1ccc2nc(Cl)c(Cn3cc(C(=O)NCc4c(C)cc5c(N)nccc5c4C)cn3)cc2c1 [Example 109, N-((1-amino-5,7-dimethylisoquinolin-6-yl)methyl)-1-((2-chloro-6-methoxyquinolin-3-yl)methyl)-1H-pyrazole-4-carboxamide] | 0.001 to 0.01 |
| Cc1cc2c(N)nccc2c(C)c1CNC(=O)c1cnn(Cc2ccc(N3CCCC3)nc2)c1C(F)(F)F [Example 193, N-((1-amino-5,7-dimethylisoquinolin-6-yl)methyl)-1-((6-(pyrrolidin-1-y1)pyridin-3-yl)methyl)-5-(trifluoromethyl)-1H-pyrazole-4-carboxamide] | 0.1 to 1 |
| Cc1cc2c(N)nccc2c(C)c1CNc1cnnc(OCc2ccc(CC(=O)N(C)C)cc2)c1 [Example I-462, 2-(4-(((5-(((1-amino-5,7-dimethylisoquinolin-6-yl)methyl)amino)pyridazin-3-yl)oxy)methyl)phenyl)-N,N-dimethylacetamide] | > 1 |
| Cc1cc2c(N)nccc2c(C)c1CNc1cc(NCc2ccc3c(c2)N(C)C(=O)CO3)ncn1 [Example 327, 6-(((6-(((1-amino-5,7-dimethylisoquinolin-6-yl)methyl)amino)pyrimidin-4-yl)amino)methyl)-4-methyl-2H-benzo[b][1,4]oxazin-3(4H)-one, formic acid salt] | 0.001 to 0.01 |
| Cc1cc2c(N)nccc2c(C)c1CNC(=O)c1cnn(Cc2ccc(CC(=O)N3CCOCC3)cc2)c1 [Example 225, N-((1-amino-5,7-dimethylisoquinolin-6-y1)methyl)-1-(4-(2-morpholino-2-oxoethyl)benzyl)-1H-pyrazole-4-carboxamide] | 0.001 to 0.01 |
| Cc1cc2c(N)nccc2c(C)c1CNc1cn2c(Cc3ccc4ccccc4c3)ncc2cn1 [Example 523, 5,7-dimethyl-6-(((3-(naphthalen-2-ylmethyl)imidazo[1,5-a]pyrazin-6-yl)amino)methyl)isoquinolin-1-amine] | > 1 |
| Cc1cc2c(N)nccc2c(C)c1CNc1cc(OCc2ccc(Cn3cccc(C4CC4)c3=O)cc2)ncn1 [Example 303, 1-(4-(((6-(((1-amino-5,7-dimethylisoquinolin-6-yl)methyl)amino)pyrimidin-4-yl)oxy)methyl)benzyl)-3-cyclopropylpyridin-2(1H)-one, formic acid salt] | 0.001 to 0.01 |
| Cc1cc2c(N)nccc2c(C)c1CNc1cc(OCc2nc3ccc(C4CC4)cn3n2)nc(C(=O)O)n1 [Example I-486, 4-(((1-amino-5,7-dimethylisoquinolin-6-yl)methyl)amino)-6-((6-cyclopropyl-[1,2,4]triazolo[1,5-a]pyridin-2-yl)methoxy)pyrimidine-2-carboxylic acid] | 0.001 to 0.01 |
| Cc1cc2c(N)nccc2c(C)c1CNc1cc(OCc2ccc3nccc(C)c3c2)cnn1 [Example 421, 5,7-dimethyl-6-(((5-((4-methylquinolin-6-yl)methoxy)pyridazin-3-yl)amino)methyl)isoquinolin-1-amine, formic acid] | 0.001 to 0.01 |
| Cc1ccc2nc(CNc3cc(NCc4c(C)cc5c(N)nccc5c4C)ncn3)cn2c1 [Example 333, N^4-((1-amino-5,7-dimethylisoquinolin-6-yl)methyl)-N^6-((6-methylimidazo[1,2-a]pyridin-2-yl)methyl)pyrimidine-4,6-diamine] | < 0.001 |
| Cc1cc2c(N)nccc2c(C)c1CNC(=O)c1cnn(CC(=O)Nc2ccccc2)c1 [Example 154, N-((1-amino-5,7-dimethylisoquinolin-6-yl)methyl)-1-(2-oxo-2-(phenylamino)ethyl)-1H-pyrazole-4-carboxamide] | 0.1 to 1 |
| CC(C)=Cc1ccc2nc(Cn3cc(C(=O)NCc4c(C)cc5c(N)nccc5c4C)cn3)cn2c1 [Example 179, N-((1-amino-5,7-dimethylisoquinolin-6-yl)methyl)-1-((6-(2-methylprop-1-en-1-yl)imidazo[1,2-a]pyridin-2-y1)methyl)-1H-pyrazole-4-carboxamide] | 0.001 to 0.01 |
| Cc1cc2c(N)nccc2c(C)c1CNc1cc(OCc2ccc(Cn3cccn3)cc2)c(C(F)(F)F)nn1 [Example 450, 6-(((5-((4-((1H-pyrazol-1-yl)methyl)benzyl)oxy)-6-(trifluoromethyl)pyridazin-3-yl)amino)methyl)-5,7-dimethylisoquinolin-1-amine] | 0.001 to 0.01 |
| Cc1cc2c(N)nccc2c(C)c1CNc1ccc2ncc(C(O)c3ccc4ccccc4c3)n2c1 (centres unmarked) [Example 521, (6-(((1-amino-5,7-dimethylisoquinolin-6-yl)methyl)amino)imidazo[1,2-a]pyridin-3-yl)(naphthalen-2-yl)methanol] | > 1 |
